Data on two compounds can be found in publication PMC8587999, “Assessment of the Activity of Decoquinate and Its Quinoline-O-Carbamate Derivatives against Toxoplasma gondii In Vitro and in Pregnant Mice Infected with T. gondii Oocysts” (Molecules, 2021).

Values joined by “and” are separate entries in the source; they are usually repeats but may differ in a detail not shown here. Equal values may be shown once. Where only a bound is given, the exact number is not on record here.

Series [1] has as its system T. gondii TgShSp1 oocysts. Description: DCQ efficacy assessment in pregnant CD1 mice orally infected with TgShSp1 oocysts. It counts as in vivo. On the procedure:
Twenty-nine female and 15 male CD1 mice, all 8 weeks of age, were used. Oestrus-synchronization and mating was carried out as described under Section 4.6. Subsequently, females were distributed randomly to 3 experimental groups: DCQ, DCQ + infection (n = 12); C+, corn oil + infection (n = 12); C-, only corn oil (n = 5). Infection was performed with 100 TgShSp1 oocysts at day 7 post-mating by oral gavage; the C− group received PBS. The treatment with DCQ suspended in corn oil at 10 mg/kg/day for 5 days; that only with corn oil was initiated at 2 days post-infection. At day 18 post-mating, pregnant mice were distributed into single cages and non-pregnant mice were housed together with 3–4 animals per cage. Dams gave birth between day 20–22, and clinical status, litter size, neonatal and postnatal mortality were recorded daily. Four weeks post-partum (p.p.), all mice were euthanized in a chamber by isoflurane/CO2 inhalation. Blood and brain samples were collected. Total IgG was measured in T. gondii infected mice by ELISA [49].
(§1) Quantification of the cerebral parasite load in non-pregnant mice, dams and pups was carried out with an established real-time PCR method for the detection of T. gondii. The NucleoSpin DNA RapidLyze Kit (Macherey-Nagel, Oensingen, Switzerland) was used for DNA purification according to the standard protocol and DNA concentrations were quantified by the QuantiFluor double-stranded DNA (dsDNA) system (Promega, Madison, WI, USA). Quantitative real-time PCR was performed with the Light Cycler (Roche, Basel, Switzerland), and the parasite load was calculated by including a standard curve of DNA samples from 1000, 100, and 10 T. gondii tachyzoites per run.
(§2) Graph creation and statistical analysis was performed in GraphPad Prism version 5.0 (GraphPad Software, La Jolla, CA, USA). Cerebral parasite burdens were compared between groups by the non-parametric Kruskal–Wallis test, followed by Mann–Whitney U test. Pup mortality over time was depicted by plotting survival events at each time point in Kaplan–Meier graphs and survival curves were compared by the Log-rank (Mantel–Cox) test.

The next series has as its system Sarcocystis neurona. Also on record: method as in PMID 23523012. Conditions: cited from earlier work.
Details of series [2]: method as in PMID 19614848. The note with it: milking cows, formulated DCQ 0.5 mg/kg; cited from earlier work.
Details of series [3]: method as in https://www.drugs.com/pro/deccox.html. The note with it: rats; ref https://www.drugs.com/pro/deccox.html; cited from earlier work.
In the next series the test system is T. gondii oocysts. Set-up: method as in PMID 8735260. The note with it: treatment commencing 10 days prior to infection with T. gondii oocysts; cited from earlier work.
Series [4] deals with T. gondii TgShSp1 oocysts. Description: RMB060 efficacy assessment in pregnant CD1 mice orally infected with TgShSp1 oocysts. Format: in vivo. On the procedure:
Eight-week-old CD1 mice, 29 females and 15 males, were used. After oestrus-synchronization and mating, females were randomly distributed to 3 experimental groups: RMB060, RMB060 + infection (n = 12); C+, corn oil + infection (n = 12); C−, only corn oil (n = 5). Infection was carried out at day 7 post-mating with 100 TgShSp1 oocysts suspended in 100 µL PBS, with the C−group receiving only PBS. Treatments, separation of pregnant and non-pregnant mice, and monitoring were performed as described in Section 4.7. All mice were euthanized 4 weeks p.p. by isoflurane/CO2. Blood and brain samples were collected. Total IgG was measured in T. gondii infected mice by ELISA to see whether drug treatment would have an impact on the humoral immune response.
as §1, §2

For series [5], the system named is liver stage of Plasmodium berghei malaria parasites. Set-up: method as in doi:10.1038/s42004-018-0062-7. The note with it: cited from earlier work.
[6] abbreviates: CD1 mice, TgShSp1 oocysts, 10 mg/kg/day oral for 5 days, positive/total adult mice.
The mark [7] stands for this setting: brain PCR, surviving pups, 10 mg/kg/day oral for 5 days.
The mark [8] stands for this setting: brain PCR, 10 mg/kg/day oral for 5 days.
The mark [9] stands for this setting: dead pups/pups born, 10 mg/kg/day oral for 5 days, 10 mg/kg/day.
[10] abbreviates: real-time PCR, 4 weeks p.p., non-pregnant mice and dams.
The mark [11] stands for this setting: serum at end of experiment, RIPC, non-pregnant mice and dams.

Broadly, the IC50 is the concentration needed to halve the response being measured. As usually defined, the LD50 is the dose expected to kill half of the subjects tested. Take `CCCCCCCCCCOc1cc2c(O)c(C(=O)OCC)cnc2cc1OCC` [DCQ, ethyl 6-decyloxy-7-ethoxy-4-oxo-1H-quinoline-3-carboxylate]: the Vertical transmission result in series [1] (10 mg/kg/day for 5 days) is “did not prevent vertical transmission”. This compound returned a Neonatal pup mortality in series [1] (10 mg/kg/day for 5 days, C+ group 40%) of 70%. For the same compound, in series [1] (10 mg/kg/day oral for 5 days), the “No. of Pups/No. of Dams” value is recorded as 92/8. Besides, the “Seropositive for T. gondii” value in series [1] (setting [6]) is given as 11/12. Further, the “Brain infection detected in adult mice (dams and non-pregnant mice)” value in series [1] (PCR, 10 mg/kg/day for 5 days) is 11 out of 12. Further, in series [1] (setting [7]), the “T. gondii Positive Pups” value was 25/25. Further, in series [1] (setting [8]), the “T. gondii Positive Dams” value is recorded as 8/8 and the “T. gondii Positive Non-Pregnant Mice” value is 3/4. In addition, the “Neonatal Mortality” value in series [1] (setting [9]) was 64 out of 92 and 64/92. Also, in series [1] (dead/remaining pups, 1-month follow-up, 10 mg/kg/day oral for 5 days, 10 mg/kg/day), the “Postnatal Mortality” value is 3 of the 28 and 3/28. The “Cerebral parasite burden compared to the C+ group” value in series [1] (setting [10]) is reported as “No statistically significant differences”. In series [1] (setting [11]), the “T. gondii IgG antibody titers compared to the C+ group” value is “no statistically significant differences”. In addition, the “Activity against S. neurona schizonts” value in the series with Sarcocystis neurona (10 day treatment at 240 nM) was “parasiticidal activity”. Besides, the IC50 in the series on Sarcocystis neurona (read-out: IC50 values for S. neurona merozoites) was 0.6 to 1.1 nM. Moreover, the “maximum concentration attained in plasma” value in series [2] is 2 µM. Further, the 50% lethal dose (LD50) in series [3] is greater than 5000 mg/kg. In the series on T. gondii oocysts, the “Outcome of prophylactic treatment in ewes” value is on record as “decreased pathological changes in the placental tissue”.
Consider `CCCCCCCCCCOc1cc2c(OC(=O)N3CCN(S(C)(=O)=O)C3=O)c(C(=O)OCC)cnc2cc1OCC` [RMB060], for which, in series [4] (10 mg/kg/day for 5 days), the Vertical transmission result is recorded as “vertical transmission to pups could not be prevented”. In addition, the Postnatal Mortality in series [4] (10 mg/kg/day for 5 days, C+ group 9.2%) is reported as 3.8%; in series [4] (dead/remaining pups, 10 mg/kg/day oral for 5 days), 4/104. The Neonatal Mortality is 16.8% in series [4] (10 mg/kg/day for 5 days, C+ group 23%, non-significant); 21 out of 125 and 21/125 in series [4] (setting [9]). Further, the “Surviving pups PCR-positive for T. gondii in the brain” value in series [4] (10 mg/kg/day for 5 days, C+ group 89%) is given as 62%. In addition, the “No. of Pups/No. of Dams” value in series [4] (10 mg/kg/day oral for 5 days) is reported as 125/10. In series [4] (setting [6]), the “Seropositive for T. gondii” value is 8/12. In addition, the “Survival curves of pups compared to the C+ group” value in series [4] (Kaplan–Meier, Log-rank (Mantel-Cox) test) was “No statistically significant differences”. Moreover, in series [4] (PCR, 10 mg/kg/day for 5 days), the “Brain infection detected in adult mice (dams and non-pregnant mice)” value was “eight out of 12”. Also, in series [4] (setting [7]), the “T. gondii Positive Pups” value is 62/100. The “T. gondii Positive Dams” value in series [4] (setting [8]) is on record as 7/10. For the same compound, in series [4] (setting [8]), the “T. gondii Positive Non-Pregnant Mice” value is on record as 1/2. In addition, the “Cerebral parasite burden compared to the C+ group” value in series [4] (setting [10]) is recorded as “No statistically significant differences”. The “T. gondii IgG antibody titers compared to the C+ group” value in series [4] (setting [11]) was “no statistically significant differences”. In addition, the “Activity against the liver stage of Plasmodium berghei” value in series [5] is “highly active”.
